Source: patent publication US20260248774A1, “INHIBITORS OF BACTERIAL TYPE III SECRETION SYSTEM” (MICROBIOTIX, INC., priority 2022, published 2026)

Experiments:
[1] = Mammalian cytotoxicity (CC50), MTS conversion; type: cell-based, human; details: human, HeLa cells, Table 1; HeLa; read-out: Cytotox-HeLa CC50
Experimental: Determination of Mammalian Cytotoxicity.
Following incubation for 3 days at 37° C. in VP-SFM, cell viability was measured with the vital tetrazolium salt stain 3-(4,5-dimethylthiazol-2-yl)-2,5 diphenyltetrazolium bromide according to the manufacturer's instructions (Promega, Madison, Wisconsin). Values were determined in triplicate using dilutions of inhibitory compound from 100 μM to 0.2 μM.

[2] = Kinetic aqueous solubility (nephelometric assay); type: physicochemical; details: Table 1
Text: Solubility. The maximum aqueous solubility of analogs will be initially determined by nephelometry using a published method (44).

CYP450 2C19 = CYP450 2C19 (Homo sapiens, UniProt P33261); assay: Cytochrome P450 inhibition, CYP2C19 (Eurofins Panlabs panel); type: in vitro ADME; details: assayed at 10 μM
Experimental: (§1) Cytochrome P450 Inhibition.
(§2) Assessment of off-target effects of priority compounds. To assess potential off-target effects, we will evaluate prioritized hits validated by in vivo testing in the Eurofins Panlabs HitProfilingScreen+CYP450 assay panel, which is performed by Eurofins as a fee for service. The assay panel of consists of assays for 30 receptors and transporters plus the five major CYP450 enzymes (1A2, 2C19, 2C9, 2D6, 3A4).

[3] = test system: P. aeruginosa T3SS-mediated secretion (exoT-luxCDABE reporter strain MDM852); assay: Luciferase (exoT-lux) transcriptional reporter assay of T3SS-mediated secretion; type: cell-based, Pseudomonas aeruginosa; details: read-out: LUX Sec IC50; Table 1
Text: Luciferase Transcriptional Reporter Assay of T3SS-Mediated Secretion with a Luminescent Signal.
A transcriptional fusion of the Photorhabdus luminescens lux operon (luxCDABE) to P. aeruginosa PAO1 T3SS effector gene exoT (PA0044) was constructed and used to build strain MDM852 as described previously (Aiello et al., 2010, Antimicrob Agents Chemother, 54:1988-1999). Induction of T3SS operons by Ca^++ depletion due to EGTA addition results in secretion of the T3SS negative regulator ExsE and the production of high levels of T3SS components including the luxCDABE gene products, which results in luminescence that is easily detected by a microplate reader. Inhibition of T3SS-mediated secretion of the negative regulator ExsE by a small molecule inhibitor causes reduced production of luxCDABE gene products and reduced luminescence. For inhibitor IC50 testing, compounds were added to a 96-well microplate in a concentration dilution series. Reporter strain MDM852 was grown at 37° C. in LBG to OD600 ~0.025-0.05, transferred into the microplate (50 uL/well) containing test compounds and EGTA (5 uL of 0.1 M stock solution), which was covered with a translucent gas-permeable seal (Abgene, Inc., Cat. No. AB-0718). […] Plates were incubated at room temperature for 300 min. Then, luminescence was measured in an Envision Multilabel microplate reader (PerkinElmer). The screening window coefficient, Z′-factor (see Zhang, et al., 1999, J. Biomol. Screen., 4:67-73), defined as the ratio of the positive and negative control separation band to the signal dynamic range of the assay, averaged 0.7 for the assay.

CYP450 1A2 = CYP450 1A2 (Homo sapiens, UniProt P05177); assay: Cytochrome P450 inhibition, CYP1A2 (Eurofins Panlabs panel); type: in vitro ADME; details: assayed at 10 μM
Experimental: as §1, §2

[4] = test system: T3SS-mediated translocation of ExoU by P. aeruginosa strain MDM1561 (PA99U) into CHO cells; assay: P. aeruginosa ExoU-dependent CHO cell killing assay for T3SS-mediated translocation; type: cell-based, Pseudomonas aeruginosa; details: read-out: Translocation EC50; Table 1
Text: P. aeruginosa ExoU-Dependent CHO Cell Killing.

[5] = test system: P. aeruginosa T3SS-mediated secretion of ExoS-β-lactamase fusion protein; assay: Effector-β-lactamase (ExoS-βLA) reporter assay of T3SS-mediated secretion; type: cell-based, Pseudomonas aeruginosa; details: read-out: ExoS-BLA IC50; Table 1
Text: Effector-β-Lactamase (βLA) Reporter Assay of T3SS-Mediated Secretion with an Absorbency Signal.
A gene encoding the exoS promoter/regulatory region and an ExoS-β-lactamase (βLA) fusion protein (comprised of the full length P. aeruginosa T3SS effector ExoS fused in reading frame to the TEM-1 β-lactamase gene lacking secretion signal codons) was constructed by splicing by overlap extension PCR (SOE-PCR) (Choi and Schweizer, 2005, BMC Microbiol., 5:30), sequence confirmed, cloned into miniCTX and introduced into P. aeruginosa strain PAO1 to generate strains MDM1746 and MDM1838 as previously described for strain MDM1710 (Bowlin et al., 2014, Antimicrob Agents Chemother., 58:2211-2220). Secretion of ExoS-β-lactamase fusion protein following EGTA addition to induce the T3SS operons was detected by measuring the hydrolysis of the chromogenic β-lactamase substrate nitrocefin in clear 96-well microplates in a modification of a previously described assay (Lee, et al., 2007, Infect. Immun., 75:1089-98). Cells of strain MDM1746, or negative control MDM1838 (which fails to carry out T3SS secretion due to ΔpscF), were sub-cultured in the morning from overnight growths in LBG into 0.1 ml of LBGE with or without test compounds and grown for 150 min. Nitrocefin (100 μg/mL final) was added, and A490 measurements taken every minute for 15 min in a Victor^3V 1420 Multilabel HTS Counter (PerkinElmer). Slopes were calculated as a relative measure of the quantity of the effector-βLA fusion protein secreted and were absolutely dependent on induction with EGTA, and the presence of a functional pscF gene in the P. aeruginosa cells. Typical signal: background ratios were 6-10.

CYP450 2D6 = CYP450 2D6 (Homo sapiens, UniProt P10635); assay: Cytochrome P450 inhibition, CYP2D6 (Eurofins Panlabs panel); type: in vitro ADME; details: assayed at 10 μM
Experimental: as §1, §2

[6] = test system: panel of human cytochrome P450s (1A2, 2C19, 2C9, 2D6, 3A4), receptors, transporters and ion channels; assay: in vitro
hERG = hERG (Homo sapiens, UniProt Q12809); assay: hERG inhibition
Chain of hERG (Q12809 whole entry): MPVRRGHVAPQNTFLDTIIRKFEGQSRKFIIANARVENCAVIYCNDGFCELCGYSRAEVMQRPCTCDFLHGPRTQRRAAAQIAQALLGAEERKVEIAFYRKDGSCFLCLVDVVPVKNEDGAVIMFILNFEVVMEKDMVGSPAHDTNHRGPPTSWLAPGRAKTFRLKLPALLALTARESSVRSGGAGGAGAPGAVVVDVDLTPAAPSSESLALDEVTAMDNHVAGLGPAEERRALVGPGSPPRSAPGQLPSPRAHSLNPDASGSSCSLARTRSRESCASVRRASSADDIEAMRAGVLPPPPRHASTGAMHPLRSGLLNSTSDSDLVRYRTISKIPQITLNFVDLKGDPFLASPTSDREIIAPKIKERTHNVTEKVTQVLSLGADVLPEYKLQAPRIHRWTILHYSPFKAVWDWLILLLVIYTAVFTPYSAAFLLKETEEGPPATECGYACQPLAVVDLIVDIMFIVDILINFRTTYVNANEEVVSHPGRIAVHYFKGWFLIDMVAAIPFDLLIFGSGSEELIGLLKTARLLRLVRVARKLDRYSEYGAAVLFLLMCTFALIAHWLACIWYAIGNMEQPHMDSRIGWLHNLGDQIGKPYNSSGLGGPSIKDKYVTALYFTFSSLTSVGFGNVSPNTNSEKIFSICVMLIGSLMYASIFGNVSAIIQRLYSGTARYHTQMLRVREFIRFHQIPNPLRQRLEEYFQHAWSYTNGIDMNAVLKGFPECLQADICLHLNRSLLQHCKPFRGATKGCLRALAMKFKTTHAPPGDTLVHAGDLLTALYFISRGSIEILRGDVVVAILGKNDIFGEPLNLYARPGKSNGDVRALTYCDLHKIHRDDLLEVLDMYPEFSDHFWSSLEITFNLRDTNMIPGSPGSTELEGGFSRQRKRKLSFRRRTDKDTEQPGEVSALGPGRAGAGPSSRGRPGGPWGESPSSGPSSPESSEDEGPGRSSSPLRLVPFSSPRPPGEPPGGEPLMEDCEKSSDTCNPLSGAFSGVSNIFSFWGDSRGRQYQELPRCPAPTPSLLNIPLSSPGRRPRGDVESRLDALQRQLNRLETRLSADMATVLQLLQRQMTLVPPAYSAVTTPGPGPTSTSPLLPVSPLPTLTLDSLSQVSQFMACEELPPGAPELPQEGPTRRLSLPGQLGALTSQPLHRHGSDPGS

Chain of CYP450 2C19 (P33261 whole entry): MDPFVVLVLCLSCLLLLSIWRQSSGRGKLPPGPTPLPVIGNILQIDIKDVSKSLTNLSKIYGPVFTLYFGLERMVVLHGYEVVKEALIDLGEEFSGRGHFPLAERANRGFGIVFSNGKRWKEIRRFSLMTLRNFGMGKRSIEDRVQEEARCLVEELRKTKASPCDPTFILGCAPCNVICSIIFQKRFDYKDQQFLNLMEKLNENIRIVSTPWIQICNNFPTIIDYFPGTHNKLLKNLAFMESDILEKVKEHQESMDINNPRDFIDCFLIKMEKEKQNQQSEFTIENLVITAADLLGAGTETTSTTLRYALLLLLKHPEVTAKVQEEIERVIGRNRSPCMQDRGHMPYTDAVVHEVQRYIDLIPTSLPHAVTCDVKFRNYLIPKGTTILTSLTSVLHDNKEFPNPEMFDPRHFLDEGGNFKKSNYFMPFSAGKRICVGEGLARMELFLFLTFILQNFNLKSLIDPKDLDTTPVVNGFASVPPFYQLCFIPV
Chain of CYP450 2D6 (P10635 whole entry): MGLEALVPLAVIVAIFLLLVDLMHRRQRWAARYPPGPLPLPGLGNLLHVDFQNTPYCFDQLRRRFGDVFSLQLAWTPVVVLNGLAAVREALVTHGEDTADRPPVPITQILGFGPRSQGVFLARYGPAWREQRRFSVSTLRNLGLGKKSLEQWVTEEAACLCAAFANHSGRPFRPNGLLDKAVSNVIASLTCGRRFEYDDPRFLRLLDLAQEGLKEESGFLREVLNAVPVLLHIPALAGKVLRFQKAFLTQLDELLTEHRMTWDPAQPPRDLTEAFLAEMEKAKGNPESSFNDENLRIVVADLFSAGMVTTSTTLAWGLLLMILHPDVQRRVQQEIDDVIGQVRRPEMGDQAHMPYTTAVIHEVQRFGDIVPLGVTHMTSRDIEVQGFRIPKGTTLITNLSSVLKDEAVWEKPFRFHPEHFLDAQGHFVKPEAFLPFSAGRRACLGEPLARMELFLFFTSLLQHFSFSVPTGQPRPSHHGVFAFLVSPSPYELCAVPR
Chain of CYP450 1A2 (P05177 whole entry): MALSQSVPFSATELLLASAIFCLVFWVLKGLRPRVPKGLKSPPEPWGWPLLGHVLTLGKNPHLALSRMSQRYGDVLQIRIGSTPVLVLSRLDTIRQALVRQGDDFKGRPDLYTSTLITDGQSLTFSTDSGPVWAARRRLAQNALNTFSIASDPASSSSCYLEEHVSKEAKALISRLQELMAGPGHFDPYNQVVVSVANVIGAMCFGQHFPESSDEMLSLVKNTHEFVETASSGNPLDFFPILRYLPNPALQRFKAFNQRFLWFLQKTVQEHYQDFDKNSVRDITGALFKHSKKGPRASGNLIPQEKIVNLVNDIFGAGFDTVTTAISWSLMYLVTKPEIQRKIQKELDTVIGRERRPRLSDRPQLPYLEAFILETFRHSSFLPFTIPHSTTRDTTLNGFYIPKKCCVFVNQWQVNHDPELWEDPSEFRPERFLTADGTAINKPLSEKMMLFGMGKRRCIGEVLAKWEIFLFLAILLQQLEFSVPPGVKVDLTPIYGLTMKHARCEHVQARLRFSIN

With `CCC(Oc1ccc(Cl)c(Cl)c1Cl)C(=O)NCc1ccc(F)cc1` (centres unmarked) [MBX-4532] the CC50 at 3 days [1] was over 200 µM, the Sol [2] was 25 µM and the “CYP450, 2C19” value (CYP450 2C19) was 80. For the same compound, the IC50 [3] was 1.63 µM, the “CYP450, 1A2” value (CYP450 1A2) was 24 and the EC50 [4] was 1.7 µM. For the same compound, the IC50 [5] was 1 µM, the “CYP450, 2D6” value (CYP450 2D6) was 0 and the inhibition at 10 µM [6] was over 50%. For the same compound, the IC50 (hERG; Table 1, read-out: hERG INH IC50) was over 100 µM and the “Potassium Channel hERG” value (hERG; assayed at 10 μM) was 26.
